# Test results reported in US11090308B2, “Methods of treating liver disorders or lipid disorders with a THR-beta agonist” (Madrigal Pharmaceuticals, Inc., priority 2016, dated 2021).
# Read-outs that look alike come from different tables or passages of the source.
# Tests used:
# CYP2C19 = CYP2C19 (Homo sapiens, UniProt P33261); test: In vitro Cytochrome P-450 enzyme assay, CYP2C19; type: in vitro ADME
# [1] = system: sandwich-cultured dog hepatocytes (SCDH); test: Hepatobiliary disposition in sandwich-cultured dog hepatocytes (SCDH); type: in vitro ADME
# Excerpt: (§1) The following studies have been conducted: (a) in vitro drug protein binding, transporter (organic anion transporting polypeptide [OATP], P-glycoprotein [P-gp], breast cancer-related protein [BCRP], and multiple drug resistance protein 1 [MDR1]), and cytochrome P-450 enzyme assays to investigate absorption, distribution, and excretion; (b) in vivo MGL-3196 rat and dog oral PK and bioavailability studies; (c) in vivo ^14C-MGL-3196 rat and dog oral pharmacokinetics, absorption, excretion, and tissue distribution by quantitative whole-body autoradiography (QWBA) studies; and (d) liver disposition of MGL-3196 using an in vitro sandwiched hepatocyte model system (B-CLEAR® technology) in dog (SCDH) and human (SCHH) hepatocytes.
# Parameters determined: • Bile Accumulation=Total Accumulationplus(+)Buffer−Cellular AccumulationMinus(−)Buffer
# [formula] • AUC=(Incubation Time)*(Analyte ConcentrationMedia) • In vitro biliary clearance:
# [formula] • (Kp ratio reflects the extent of MGL-3196 accumulation in hepatocyte to the total MGL-3196 concentration in the buffer, outside of the hepatocyte).
# (§2) MGL-3196 and its metabolite, MGL-3196-M1 (M1), were evaluated in sandwich-cultured human hepatocytes (SCHH) to evaluate the effects of temperature and concentration on total accumulation. Incubations were performed in presence of 4% bovine serum albumin (BSA) for 20 minutes at 37° C. and 4° C. across multiple concentrations (3, 10, 30, and 100 μM). Following the hepatic accumulation study, a species comparison of the hepatobiliary disposition of MGL-3196 (30 μM) and its metabolite, M1, was evaluated in SCHH and sandwich-cultured dog hepatocytes (SCDH) in the presence of 4% BSA.
# CYP2C8 = target: T1, CYP2C8 (Homo sapiens, UniProt P10632); test: In vitro Cytochrome P-450 enzyme assay, CYP2C8; type: in vitro ADME; settings: for IC50: read-out: Inhibitor of: CYP2C8, IC50
# T1 sequence (P10632 1-490): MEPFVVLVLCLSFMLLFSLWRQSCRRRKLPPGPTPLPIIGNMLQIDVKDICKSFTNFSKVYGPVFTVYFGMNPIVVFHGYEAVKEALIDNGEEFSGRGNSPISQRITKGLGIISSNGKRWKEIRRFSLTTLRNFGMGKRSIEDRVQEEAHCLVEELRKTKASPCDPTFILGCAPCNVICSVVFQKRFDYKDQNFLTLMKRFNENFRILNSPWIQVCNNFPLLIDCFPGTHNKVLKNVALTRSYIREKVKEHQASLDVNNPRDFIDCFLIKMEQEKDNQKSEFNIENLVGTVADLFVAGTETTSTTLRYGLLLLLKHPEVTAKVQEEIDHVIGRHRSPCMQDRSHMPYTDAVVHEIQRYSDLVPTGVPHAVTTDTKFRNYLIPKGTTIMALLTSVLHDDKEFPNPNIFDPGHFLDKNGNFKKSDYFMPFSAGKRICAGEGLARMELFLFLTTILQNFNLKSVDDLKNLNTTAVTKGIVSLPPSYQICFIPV
# Excerpt: as §1
# CYP3A4 = CYP3A4 (Homo sapiens, UniProt P08684); test: In vitro Cytochrome P-450 enzyme assay, CYP3A4; type: in vitro ADME
# Sequence of CYP3A4 (P08684 2-503 limits assumed): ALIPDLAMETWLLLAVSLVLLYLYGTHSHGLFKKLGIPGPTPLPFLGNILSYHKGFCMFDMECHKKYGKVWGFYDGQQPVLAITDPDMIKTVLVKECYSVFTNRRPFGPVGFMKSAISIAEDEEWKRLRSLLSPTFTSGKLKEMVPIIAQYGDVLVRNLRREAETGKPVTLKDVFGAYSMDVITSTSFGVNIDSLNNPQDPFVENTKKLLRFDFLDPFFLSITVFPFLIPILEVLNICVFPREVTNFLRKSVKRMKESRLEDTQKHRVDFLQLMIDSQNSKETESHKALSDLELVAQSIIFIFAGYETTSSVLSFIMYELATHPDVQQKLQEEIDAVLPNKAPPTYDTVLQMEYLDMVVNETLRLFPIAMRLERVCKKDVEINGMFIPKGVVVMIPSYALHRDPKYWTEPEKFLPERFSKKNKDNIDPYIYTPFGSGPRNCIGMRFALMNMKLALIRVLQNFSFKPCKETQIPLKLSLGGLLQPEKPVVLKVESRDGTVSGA
# Excerpt: as §1
# [2] = system: sandwich-cultured human hepatocytes (SCHH); test: Effects of temperature and concentration on total accumulation in SCHH; type: in vitro ADME
# Description: as §2
# in vitro = in vitro ADME, all species; settings: plasma
# Excerpt: as §1
# CYP2C9 = CYP2C9 (Homo sapiens, UniProt P11712); test: In vitro Cytochrome P-450 enzyme assay, CYP2C9; type: in vitro ADME; settings: for IC50: read-out: Inhibitor of: CYP2C9, IC50
# Sequence of CYP2C9 (P11712 whole entry): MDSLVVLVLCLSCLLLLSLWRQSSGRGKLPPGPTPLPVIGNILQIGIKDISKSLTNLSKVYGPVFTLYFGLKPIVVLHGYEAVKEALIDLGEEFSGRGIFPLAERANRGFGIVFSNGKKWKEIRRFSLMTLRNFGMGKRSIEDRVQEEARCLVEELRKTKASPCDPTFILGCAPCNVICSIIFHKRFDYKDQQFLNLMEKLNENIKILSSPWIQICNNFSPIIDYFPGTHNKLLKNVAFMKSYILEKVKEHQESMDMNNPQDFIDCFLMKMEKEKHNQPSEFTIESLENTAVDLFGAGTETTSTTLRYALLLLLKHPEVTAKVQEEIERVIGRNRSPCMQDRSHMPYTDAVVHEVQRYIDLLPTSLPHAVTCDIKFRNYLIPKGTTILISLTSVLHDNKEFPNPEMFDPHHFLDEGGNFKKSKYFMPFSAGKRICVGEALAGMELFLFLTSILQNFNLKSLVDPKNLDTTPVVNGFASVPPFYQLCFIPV
# [3] = Dog oral PK and bioavailability studies; type: in vivo
# Excerpt: as §1
# (§3) Rat & Dog PK/Bioavailability Studies were also performed.
# CYP3A4/5 = test: In vitro Cytochrome P-450 enzyme assay, CYP3A4/5; type: in vitro ADME
# OATP1B3 = target: T2, OATP1B3 (Homo sapiens, UniProt Q9NPD5); test: In vitro drug transporter assay, OATP1B3; type: in vitro ADME
# T2 sequence (Q9NPD5 1-702): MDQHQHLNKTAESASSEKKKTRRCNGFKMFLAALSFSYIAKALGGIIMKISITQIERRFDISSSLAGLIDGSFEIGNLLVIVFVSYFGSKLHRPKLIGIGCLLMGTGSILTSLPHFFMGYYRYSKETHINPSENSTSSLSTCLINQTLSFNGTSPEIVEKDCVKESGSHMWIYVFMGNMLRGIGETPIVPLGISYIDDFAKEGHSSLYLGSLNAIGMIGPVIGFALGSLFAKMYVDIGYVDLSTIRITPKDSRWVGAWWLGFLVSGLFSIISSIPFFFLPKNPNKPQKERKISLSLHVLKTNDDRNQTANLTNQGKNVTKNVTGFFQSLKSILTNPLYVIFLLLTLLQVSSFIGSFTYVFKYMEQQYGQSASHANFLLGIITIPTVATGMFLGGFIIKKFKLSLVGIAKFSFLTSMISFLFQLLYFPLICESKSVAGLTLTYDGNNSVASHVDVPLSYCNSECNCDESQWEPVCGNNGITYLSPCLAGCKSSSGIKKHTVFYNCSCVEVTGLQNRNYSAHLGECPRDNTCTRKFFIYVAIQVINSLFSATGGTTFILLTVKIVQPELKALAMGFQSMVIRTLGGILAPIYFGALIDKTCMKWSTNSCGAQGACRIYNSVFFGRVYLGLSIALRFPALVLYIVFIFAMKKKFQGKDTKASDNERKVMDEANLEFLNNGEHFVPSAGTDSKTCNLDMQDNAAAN
# Excerpt: as §1
# CYP2D6 = CYP2D6 (Homo sapiens, UniProt P10635); test: In vitro Cytochrome P-450 enzyme assay, CYP2D6; type: in vitro ADME
# Sequence of CYP2D6 (P10635 whole entry): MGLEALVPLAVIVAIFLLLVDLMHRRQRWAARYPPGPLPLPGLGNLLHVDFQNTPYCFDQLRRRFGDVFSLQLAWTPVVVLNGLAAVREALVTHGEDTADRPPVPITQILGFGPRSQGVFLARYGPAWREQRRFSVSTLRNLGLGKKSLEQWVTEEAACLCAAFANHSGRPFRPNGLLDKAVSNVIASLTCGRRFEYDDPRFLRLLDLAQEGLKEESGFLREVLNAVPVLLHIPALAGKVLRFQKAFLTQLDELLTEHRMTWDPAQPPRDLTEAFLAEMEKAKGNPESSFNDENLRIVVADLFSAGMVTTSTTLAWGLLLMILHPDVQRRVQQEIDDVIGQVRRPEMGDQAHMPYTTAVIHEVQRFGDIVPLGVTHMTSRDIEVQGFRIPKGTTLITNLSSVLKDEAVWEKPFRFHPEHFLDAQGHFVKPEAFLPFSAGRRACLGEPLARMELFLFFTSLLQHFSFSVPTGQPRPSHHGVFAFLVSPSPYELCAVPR
# Excerpt: as §1
# [4] = Rat oral PK and bioavailability studies; type: in vivo
# Excerpt: as §1, §3
# MRP2 = MRP2 (Homo sapiens, UniProt Q92887); test: In vitro drug transporter assay, MRP2; type: in vitro ADME
# Sequence of MRP2 (Q92887 whole entry, species assumed): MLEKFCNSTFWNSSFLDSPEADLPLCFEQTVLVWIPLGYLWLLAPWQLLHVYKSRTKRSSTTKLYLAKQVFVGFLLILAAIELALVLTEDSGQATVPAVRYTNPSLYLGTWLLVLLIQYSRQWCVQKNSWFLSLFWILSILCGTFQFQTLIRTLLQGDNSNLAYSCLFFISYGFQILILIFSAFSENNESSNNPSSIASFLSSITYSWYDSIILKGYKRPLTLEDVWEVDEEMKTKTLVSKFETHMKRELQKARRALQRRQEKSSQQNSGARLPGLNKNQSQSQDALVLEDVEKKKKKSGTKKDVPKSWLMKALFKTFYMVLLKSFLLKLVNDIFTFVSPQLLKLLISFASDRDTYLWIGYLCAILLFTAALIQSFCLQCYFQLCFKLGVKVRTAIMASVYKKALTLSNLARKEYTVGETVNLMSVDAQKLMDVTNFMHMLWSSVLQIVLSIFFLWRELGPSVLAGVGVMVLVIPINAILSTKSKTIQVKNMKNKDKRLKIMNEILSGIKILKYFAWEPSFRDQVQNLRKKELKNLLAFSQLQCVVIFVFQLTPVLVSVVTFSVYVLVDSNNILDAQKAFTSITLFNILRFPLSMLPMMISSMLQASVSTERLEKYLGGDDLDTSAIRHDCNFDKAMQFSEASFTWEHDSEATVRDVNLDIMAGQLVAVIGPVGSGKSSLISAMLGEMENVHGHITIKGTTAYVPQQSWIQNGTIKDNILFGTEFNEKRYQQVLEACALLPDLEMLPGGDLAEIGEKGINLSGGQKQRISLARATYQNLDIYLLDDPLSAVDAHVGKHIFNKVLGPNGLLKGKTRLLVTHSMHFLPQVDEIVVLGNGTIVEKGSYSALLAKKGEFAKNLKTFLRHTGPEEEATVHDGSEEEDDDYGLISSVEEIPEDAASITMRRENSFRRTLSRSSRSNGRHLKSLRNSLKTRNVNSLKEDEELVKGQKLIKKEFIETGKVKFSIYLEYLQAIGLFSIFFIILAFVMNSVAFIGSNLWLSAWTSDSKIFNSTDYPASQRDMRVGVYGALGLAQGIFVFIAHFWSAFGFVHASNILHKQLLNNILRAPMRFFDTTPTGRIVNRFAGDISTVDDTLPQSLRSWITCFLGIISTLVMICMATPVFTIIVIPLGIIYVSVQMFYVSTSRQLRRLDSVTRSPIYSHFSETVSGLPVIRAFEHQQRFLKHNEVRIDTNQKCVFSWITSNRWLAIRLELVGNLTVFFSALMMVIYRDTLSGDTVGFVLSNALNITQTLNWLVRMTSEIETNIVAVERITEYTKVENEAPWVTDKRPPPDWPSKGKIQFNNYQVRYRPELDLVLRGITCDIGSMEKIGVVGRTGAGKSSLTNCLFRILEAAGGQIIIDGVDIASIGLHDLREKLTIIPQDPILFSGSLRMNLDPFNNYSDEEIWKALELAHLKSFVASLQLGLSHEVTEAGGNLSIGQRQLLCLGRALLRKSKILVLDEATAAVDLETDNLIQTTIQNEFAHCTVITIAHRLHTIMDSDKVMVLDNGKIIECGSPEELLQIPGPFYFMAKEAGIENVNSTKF
# BSEP = BSEP (Homo sapiens, UniProt O95342); test: In vitro drug transporter assay, BSEP; type: in vitro ADME; settings: BSEP-mediated transport of TCA; read-out: Inhibitor of: BSEP, IC50
# Sequence of BSEP (O95342 whole entry, species assumed): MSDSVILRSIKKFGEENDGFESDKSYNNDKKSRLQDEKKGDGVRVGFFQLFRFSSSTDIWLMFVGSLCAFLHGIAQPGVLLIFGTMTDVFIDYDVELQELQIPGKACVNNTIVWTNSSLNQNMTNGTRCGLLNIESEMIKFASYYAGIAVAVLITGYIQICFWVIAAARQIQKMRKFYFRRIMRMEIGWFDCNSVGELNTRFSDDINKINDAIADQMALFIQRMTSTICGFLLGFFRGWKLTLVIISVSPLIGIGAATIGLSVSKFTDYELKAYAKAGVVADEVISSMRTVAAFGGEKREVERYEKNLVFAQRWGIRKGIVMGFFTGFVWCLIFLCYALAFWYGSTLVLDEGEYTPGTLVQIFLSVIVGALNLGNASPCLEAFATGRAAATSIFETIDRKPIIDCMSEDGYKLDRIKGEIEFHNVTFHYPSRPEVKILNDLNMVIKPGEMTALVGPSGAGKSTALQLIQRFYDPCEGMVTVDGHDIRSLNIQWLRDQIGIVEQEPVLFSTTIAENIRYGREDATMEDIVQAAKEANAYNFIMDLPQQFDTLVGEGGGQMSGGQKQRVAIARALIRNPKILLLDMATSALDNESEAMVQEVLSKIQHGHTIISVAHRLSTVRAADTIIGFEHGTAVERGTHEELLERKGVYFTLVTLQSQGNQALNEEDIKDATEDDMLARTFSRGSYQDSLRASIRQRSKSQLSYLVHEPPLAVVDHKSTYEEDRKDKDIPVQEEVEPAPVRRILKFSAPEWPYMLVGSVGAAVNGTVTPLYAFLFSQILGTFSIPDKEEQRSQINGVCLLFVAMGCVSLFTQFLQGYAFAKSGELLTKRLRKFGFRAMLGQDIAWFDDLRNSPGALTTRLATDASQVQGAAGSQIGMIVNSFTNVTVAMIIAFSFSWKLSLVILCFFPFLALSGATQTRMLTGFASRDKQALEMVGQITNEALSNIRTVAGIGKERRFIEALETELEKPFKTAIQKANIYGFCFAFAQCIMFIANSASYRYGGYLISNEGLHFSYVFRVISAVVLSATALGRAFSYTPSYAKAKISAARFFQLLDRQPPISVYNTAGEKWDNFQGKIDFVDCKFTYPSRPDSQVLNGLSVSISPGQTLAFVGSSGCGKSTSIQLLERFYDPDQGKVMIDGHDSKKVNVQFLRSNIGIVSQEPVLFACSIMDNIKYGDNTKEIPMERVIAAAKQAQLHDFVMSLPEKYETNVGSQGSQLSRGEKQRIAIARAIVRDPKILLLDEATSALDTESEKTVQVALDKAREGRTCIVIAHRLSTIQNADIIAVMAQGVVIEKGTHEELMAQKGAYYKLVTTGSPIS
# [5] = SCDH, 20 min exposure to MGL-3196 30 μM, 4% BSA
# Sequence of CYP2C19 (P33261 whole entry): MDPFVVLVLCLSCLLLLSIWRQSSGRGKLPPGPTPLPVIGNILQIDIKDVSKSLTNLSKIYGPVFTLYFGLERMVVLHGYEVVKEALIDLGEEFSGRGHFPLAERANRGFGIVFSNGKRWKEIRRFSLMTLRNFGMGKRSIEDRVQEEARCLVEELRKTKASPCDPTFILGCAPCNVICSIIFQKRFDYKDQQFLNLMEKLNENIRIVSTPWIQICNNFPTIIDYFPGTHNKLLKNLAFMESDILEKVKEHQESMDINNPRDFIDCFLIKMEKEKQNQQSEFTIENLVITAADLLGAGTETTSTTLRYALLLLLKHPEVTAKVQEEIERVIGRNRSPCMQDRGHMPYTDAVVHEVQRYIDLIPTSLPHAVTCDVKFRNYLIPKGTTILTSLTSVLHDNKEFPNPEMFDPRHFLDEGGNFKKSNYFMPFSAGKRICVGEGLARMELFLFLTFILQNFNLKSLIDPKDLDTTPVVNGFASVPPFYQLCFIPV
structure (smiles),measurement,setting,value
"CC(C)c1cc(Oc2c(Cl)cc(-n3nc(C#N)c(=O)[nH]c3=O)cc2Cl)n[nH]c1=O [MGL-3196, 2-(3,5-dichloro-4-((5-isopropyl-6-oxo-1,6-dihydropyridazin-3-yl)oxy)phenyl)-3,5-dioxo-2,3,4,5-tetrahydro-1,2,4-triazine-6-carbonitrile]",Inhibitor of: CYP2C19,CYP2C19,not an inhibitor
same,Total accumulation in SCDH lower than in SCHH,"[1]; 30 μM, 20-minute exposure",~81%
same,biliary clearance estimates lower in dog than human hepatocytes,[1]; SCDH vs SCHH,~46%
same,BEI (Biliary Excretion Index),[1]; [5],48.7%
same,Bile Acc.,[1]; [5],86.2 pmol/mg
same,Cellular Acc.,[1]; [5],80.3 pmol/mg
same,ClBiliary (in vitro biliary clearance),[1]; [5],0.784 mL/min/kg
same,ICC (intracellular concentration),[1]; [5],10.4 µM
same,Kp,[1]; [5],0.348 Ratio
same,Total Acc.,[1]; [5],167 pmol/mg
same,Substrate for: CYP2C8,CYP2C8,CYP2C8;
same,IC50,CYP2C8,0.9 µM
same,Inhibitor of: CYP3A4,CYP3A4,CYP3A4 (weak inhibitor)
same,share of total accumulation (hepatocytes+bile) mediated by an active uptake process (temperature-dependent),"[2]; 37° C. vs 4° C., 20 minutes, 4% BSA, 3, 10, 30, 100 μM",≥ 72.8%
same,fraction unbound,in vitro,< 0.01
same,Substrate for: CYP2C9,CYP2C9,CYP2C9;
same,IC50,CYP2C9,22 µM
same,bioavailability,"[3]; dog, plasma, po",11 to 135%
same,half-life,"[3]; dog, plasma, dogs, oral dosing, read-out: mean elimination half-life",3 to 5.5 h
same,time of maximum plasma concentrations,"[3]; dogs, oral dosing",1 to 8 h
same,Inhibitor of: CYP3A4/5,CYP3A4/5,not an inhibitor
same,Substrate for: OATP1B3,OATP1B3,OATP1B3;
same,"Inhibitor of: OATP1B3, % inhibition",OATP1B3; @ 10 uM Pravastatin,OATP1B3 (57% @ 10 uM Pravastatin)
same,Inhibitor of: CYP2D6,CYP2D6,not an inhibitor
same,bioavailability,"[4]; rat, plasma, po",45 to 98%
same,half-life,"[4]; rat, plasma, rats, oral dosing, read-out: mean elimination half-life",2.5 to 7 h
same,time of maximum plasma concentrations,"[4]; rats, oral dosing",2 to 6 h
same,Inhibitor of: MRP2,MRP2,not an inhibitor
same,Substrate for: MRP2,MRP2,not a substrate
same,IC50,BSEP,34.7 µM
CC(CO)c1cc(Oc2c(Cl)cc(-n3nc(C#N)c(=O)[nH]c3=O)cc2Cl)n[nH]c1=O (stereo not drawn) [MGL-3623],IC50,"CYP2C19; range given jointly for CYP2B6, CYP2C9, CYP2C19, weak, read-out: Inhibitor of: CYP2C19, IC50",24 to 35 µM
same,Cellular Acc.,[1]; [5],BLQ
same,"PIS (post incubation supernatant, cell culture media)",[1]; [5],BLQ
same,Total Acc.,[1]; [5],BLQ
same,Substrate for: CYP2C8,CYP2C8,CYP 2C8
same,IC50,CYP2C8,6.1 µM
same,reduction of accumulation in 4° C. incubations,[2]; across all MGL-3196 exposure levels examined,≥ 65%
same,IC50,"CYP2C9; range given jointly for CYP2B6, CYP2C9, CYP2C19, weak",24 to 35 µM
same,IC50,"CYP3A4/5; human, weak, read-out: Inhibitor of: CYP3A4/5, IC50",35 µM
same,Substrate for: OATP1B3,OATP1B3,OATP1B3
same,IC50,"OATP1B3; weak, read-out: Inhibitor of: OATP1B3, IC50",22.6 µM
same,IC50,"CYP2D6; read-out: Inhibitor of: CYP2D6, IC50",> 50 µM
